# Test results published in the supplement of paper PMC10307832.
# How the values were obtained:
# Test in all cases: relative viability (nuclei count vs DMSO), 5 days (fraction); higher = more cells survive
# [1] = test system: UMC-11
# How it was run: (§1)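 Lung cancer cell lines in 1536-well plates were dosed by pin tool the day after seeding, either with one drug alone or with a fixed anchor-drug dose plus five library-drug doses (not always all listed) in √10 steps. After 5 days, cells were fixed and their nuclei stained in one step (final 0.05% Triton X-100, 1% formaldehyde, 1 ug/ml Hoechst), then counted on 4× images. Relative viability is the nuclei count in treated wells divided by that in vehicle wells. Values are medians of duplicate plates.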
# [2] = test system: NCI-H1651
# How it was run: as §1
# [3] = test system: NCI-H2342
# How it was run: as §1
# [4] = test system: LU99A
# How it was run: as §1
# [5] = test system: HCC-78
# How it was run: as §1
# [6] = test system: NCI-H322M
# How it was run: as §1
# [7] = test system: PC-3 [JPC-3]
# How it was run: as §1
# [8] = test system: LK-2
# How it was run: as §1
# [9] = test system: SK-MES-1
# How it was run: as §1
# [10] = test system: NCI-H661
# How it was run: as §1
# [11] = test system: NCI-H1944
# How it was run: as §1
# [12] = test system: NCI-H1666
# How it was run: as §1
structure (smiles),measurement,setting,value
C=C1C(=O)O[C@@H](CCCCCCCC)[C@@H]1C(=O)O [C-75] + COc1cc2c(Oc3ccc(NC(=O)C4(C(=O)Nc5ccc(F)cc5)CC4)cc3F)ccnc2cc1OCCCN1CCOCC1 [Foretinib] (partner 0.25 µM),relative viability,[1]; first compound 0.8 µM,0.978
same,relative viability,[1]; first compound 2.53 µM,0.681
same,relative viability,[1]; first compound 8 µM,0.69
same,relative viability,[2]; first compound 0.08 µM,0.83
same,relative viability,[2]; first compound 0.253 µM,0.944
same,relative viability,[2]; first compound 0.8 µM,0.725
same,relative viability,[2]; first compound 2.53 µM,0.668
same,relative viability,[2]; first compound 8 µM,0.958
same,relative viability,[3]; first compound 0.08 µM,1.11
same,relative viability,[3]; first compound 0.253 µM,1.13
same,relative viability,[3]; first compound 0.8 µM,1.04
same,relative viability,[3]; first compound 2.53 µM,0.923
same,relative viability,[3]; first compound 8 µM,1.17
same,relative viability,[4]; first compound 0.08 µM,0.809
same,relative viability,[4]; first compound 0.253 µM,0.71
same,relative viability,[4]; first compound 0.8 µM,0.831
same,relative viability,[4]; first compound 2.53 µM,0.783
same,relative viability,[4]; first compound 8 µM,0.63
same,relative viability,[5]; first compound 0.08 µM,0.553
same,relative viability,[5]; first compound 0.253 µM,0.554
same,relative viability,[5]; first compound 0.8 µM,0.577
same,relative viability,[5]; first compound 2.53 µM,0.421
same,relative viability,[5]; first compound 8 µM,0.687
same,relative viability,[6]; first compound 0.08 µM,0.928
same,relative viability,[6]; first compound 0.253 µM,1.33
same,relative viability,[6]; first compound 0.8 µM,0.839
same,relative viability,[6]; first compound 2.53 µM,0.902
same,relative viability,[6]; first compound 8 µM,0.964
same,relative viability,[7]; first compound 0.08 µM,1.05
same,relative viability,[7]; first compound 0.253 µM,1.02
same,relative viability,[7]; first compound 0.8 µM,1.06
same,relative viability,[7]; first compound 2.53 µM,1.06
same,relative viability,[7]; first compound 8 µM,1.2
same,relative viability,[8]; first compound 0.08 µM,0.944
same,relative viability,[8]; first compound 0.253 µM,1.23
same,relative viability,[8]; first compound 0.8 µM,1.15
same,relative viability,[8]; first compound 2.53 µM,1.35
same,relative viability,[8]; first compound 8 µM,1.06
same,relative viability,[9]; first compound 0.08 µM,1.06
same,relative viability,[9]; first compound 0.253 µM,0.773
same,relative viability,[9]; first compound 0.8 µM,0.978
same,relative viability,[9]; first compound 8 µM,0.925
same,relative viability,[10]; first compound 0.08 µM,1.06
same,relative viability,[10]; first compound 0.253 µM,1.01
same,relative viability,[10]; first compound 0.8 µM,0.998
same,relative viability,[10]; first compound 2.53 µM,0.901
same,relative viability,[10]; first compound 8 µM,0.896
same,relative viability,[11]; first compound 0.08 µM,0.899
same,relative viability,[11]; first compound 0.253 µM,0.756
same,relative viability,[11]; first compound 0.8 µM,0.829
same,relative viability,[11]; first compound 8 µM,0.834
same,relative viability,[12]; first compound 0.08 µM,0.991
same,relative viability,[12]; first compound 0.253 µM,1.01
same,relative viability,[12]; first compound 0.8 µM,0.969
same,relative viability,[12]; first compound 2.53 µM,0.732
same,relative viability,[12]; first compound 8 µM,0.777
